# Earlier results in article PMC11949389 (Polish Journal of Microbiology, 2025).
# Legend:
# [1] = tested on: β-haemolytic Streptococcus spp.; details: ref Sim et al. 2019
# [2] = tested on: Pseudomonas sp.; details: ref Caballero Gómez et al. 2022
# [3] = tested on: Ciprofloxacin-resistant Pseudomonas aeruginosa; details: Ciprofloxacin-resistant Pseudomonas aeruginosa; ref Owen et al. 2019
# [4] = tested on: Candida krusei; details: Candida krusei; ref Sharifzadeh et al. 2019; Iraji et al. 2020; Biernasiuk et al. 2022; Stringaro et al. 2022
# [5] = tested on: Salmonella Thyphimurium; details: ref Giovagnoni et al. 2020
# [6] = tested on: various microorganisms; details: across various microorganisms; ref Owen et al. (2019)
# [7] = tested on: Vibrio anguillarum, and Vibrio harveyi; details: ref Rossi et al. (2021)
# [8] = tested on: Salmonella Typhimurium; details: ref Giovagnoni et al. (2020)
# [9] = tested on: HSV-2; details: HSV-2, 1 mmol/l; ref Wang et al. (2020a)
# [10] = tested on: HIV-1; details: ref Mediouni et al. (2020)
# [11] = tested on: carbapenem-resistant Klebsiella pneumoniae (CRKP) strains; details: with meropenem, ref Köse (2022)
compound,measurement,setting,value
Cc1ccc(C(C)C)cc1O [Carvacrol],MIC/Sensitivity,[1]; β-haemolytic Streptococcus spp.,0.146 to 0.292 mg/mL
same,MIC90,[1]; β-hemolytic Streptococcus,0.292 to 0.4 mg/mL
same,MIC/Sensitivity,[2],0.1 to 0.4 mg/mL
same,MIC/Sensitivity,[3],4749.9564 mg/mL
same,MIC/Sensitivity,[4],0.0875 to 0.125 mg/mL
same,Mechanisms of action,[5],• Anti-inflammatory effects • Anti-oxidant properties • Enhanced epithelial barrier integrity • Reduction of bacterial translocation • Improved transepithelial electrical resistance • Inhibited bacterial growth
same,MIC,[6],990 to 15810 µM
same,MIC,[7],940 to 7500 µM
same,MIC,[8],1870 µM
same,virus release rate,[9],33.67%
same,IC50,[10]; HIV-1,16 µM
same,reduction of viral infectivity,[10]; pretreatment of HIV,60.6%
same,FICI,"[11]; checkerboard assays, CRKP",0.5
same,CRKP strains with synergy,[11],8 of 25
